What all share (type): biochemical
For experiment [1], the target named is JNK1 (Homo sapiens, UniProt P45983). Kind of experiment: ExpresS Diversity Kinase Profile, Cerep (LANCE): JNK1.
The target of experiment [2] is CDK1 (Homo sapiens, UniProt P06493). Description: ExpresS Diversity Kinase Profile, Cerep (LANCE): CDK1.
The target of experiment [3] is Src (Homo sapiens, UniProt P12931). Description: ExpresS Diversity Kinase Profile, Cerep (LANCE): Src. (In TR-FRET formats the signal depends on donor and acceptor labels being close together.)
The target of experiment [4] is T1, EphB4 (Homo sapiens, UniProt P54760).
T1 sequence (P54760 16-987): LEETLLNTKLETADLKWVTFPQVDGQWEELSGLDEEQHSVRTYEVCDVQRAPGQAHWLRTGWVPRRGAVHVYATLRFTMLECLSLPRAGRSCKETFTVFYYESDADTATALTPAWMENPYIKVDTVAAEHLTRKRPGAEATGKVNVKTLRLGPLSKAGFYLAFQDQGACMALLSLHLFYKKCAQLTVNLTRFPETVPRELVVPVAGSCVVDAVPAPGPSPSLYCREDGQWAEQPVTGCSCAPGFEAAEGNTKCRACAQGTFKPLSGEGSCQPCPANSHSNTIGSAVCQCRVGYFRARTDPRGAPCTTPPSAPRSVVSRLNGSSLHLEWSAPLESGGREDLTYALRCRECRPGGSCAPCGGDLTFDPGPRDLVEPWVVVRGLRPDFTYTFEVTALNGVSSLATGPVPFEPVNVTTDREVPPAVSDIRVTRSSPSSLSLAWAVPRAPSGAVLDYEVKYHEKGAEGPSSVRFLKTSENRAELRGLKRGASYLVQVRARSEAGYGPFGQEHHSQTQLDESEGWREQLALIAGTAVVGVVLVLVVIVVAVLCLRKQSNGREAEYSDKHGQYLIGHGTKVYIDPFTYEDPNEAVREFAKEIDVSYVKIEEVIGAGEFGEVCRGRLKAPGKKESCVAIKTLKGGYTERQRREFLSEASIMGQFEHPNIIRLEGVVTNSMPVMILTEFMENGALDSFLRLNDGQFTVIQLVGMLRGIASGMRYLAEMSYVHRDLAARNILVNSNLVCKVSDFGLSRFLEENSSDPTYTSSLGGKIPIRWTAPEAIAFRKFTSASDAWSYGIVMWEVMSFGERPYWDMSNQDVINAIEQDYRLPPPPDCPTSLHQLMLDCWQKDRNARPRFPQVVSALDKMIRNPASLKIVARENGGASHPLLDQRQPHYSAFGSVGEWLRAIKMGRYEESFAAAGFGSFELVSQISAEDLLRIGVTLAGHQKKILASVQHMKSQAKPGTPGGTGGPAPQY
Description: ExpresS Diversity Kinase Profile, Cerep (LANCE): EphB4.

Experiment [5] addresses T2, IRAK4 (Homo sapiens, UniProt Q9NWZ3).
T2 sequence (Q9NWZ3 1-460): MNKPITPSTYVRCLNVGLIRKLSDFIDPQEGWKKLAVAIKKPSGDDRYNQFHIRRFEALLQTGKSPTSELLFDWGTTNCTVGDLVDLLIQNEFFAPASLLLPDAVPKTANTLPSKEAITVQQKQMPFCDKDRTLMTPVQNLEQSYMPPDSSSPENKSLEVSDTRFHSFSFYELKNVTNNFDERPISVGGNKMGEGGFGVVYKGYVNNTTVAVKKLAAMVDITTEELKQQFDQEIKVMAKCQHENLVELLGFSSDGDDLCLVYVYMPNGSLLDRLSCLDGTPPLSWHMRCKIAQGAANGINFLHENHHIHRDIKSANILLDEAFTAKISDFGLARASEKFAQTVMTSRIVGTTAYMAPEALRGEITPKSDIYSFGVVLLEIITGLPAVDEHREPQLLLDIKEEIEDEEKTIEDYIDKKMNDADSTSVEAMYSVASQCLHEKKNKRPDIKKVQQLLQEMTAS
Kind of experiment: ExpresS Diversity Kinase Profile, Cerep (LANCE): IRAK4.

In experiment [6] the target is T3, JAK3 (Homo sapiens, UniProt P52333).
T3 sequence (P52333 1-1124): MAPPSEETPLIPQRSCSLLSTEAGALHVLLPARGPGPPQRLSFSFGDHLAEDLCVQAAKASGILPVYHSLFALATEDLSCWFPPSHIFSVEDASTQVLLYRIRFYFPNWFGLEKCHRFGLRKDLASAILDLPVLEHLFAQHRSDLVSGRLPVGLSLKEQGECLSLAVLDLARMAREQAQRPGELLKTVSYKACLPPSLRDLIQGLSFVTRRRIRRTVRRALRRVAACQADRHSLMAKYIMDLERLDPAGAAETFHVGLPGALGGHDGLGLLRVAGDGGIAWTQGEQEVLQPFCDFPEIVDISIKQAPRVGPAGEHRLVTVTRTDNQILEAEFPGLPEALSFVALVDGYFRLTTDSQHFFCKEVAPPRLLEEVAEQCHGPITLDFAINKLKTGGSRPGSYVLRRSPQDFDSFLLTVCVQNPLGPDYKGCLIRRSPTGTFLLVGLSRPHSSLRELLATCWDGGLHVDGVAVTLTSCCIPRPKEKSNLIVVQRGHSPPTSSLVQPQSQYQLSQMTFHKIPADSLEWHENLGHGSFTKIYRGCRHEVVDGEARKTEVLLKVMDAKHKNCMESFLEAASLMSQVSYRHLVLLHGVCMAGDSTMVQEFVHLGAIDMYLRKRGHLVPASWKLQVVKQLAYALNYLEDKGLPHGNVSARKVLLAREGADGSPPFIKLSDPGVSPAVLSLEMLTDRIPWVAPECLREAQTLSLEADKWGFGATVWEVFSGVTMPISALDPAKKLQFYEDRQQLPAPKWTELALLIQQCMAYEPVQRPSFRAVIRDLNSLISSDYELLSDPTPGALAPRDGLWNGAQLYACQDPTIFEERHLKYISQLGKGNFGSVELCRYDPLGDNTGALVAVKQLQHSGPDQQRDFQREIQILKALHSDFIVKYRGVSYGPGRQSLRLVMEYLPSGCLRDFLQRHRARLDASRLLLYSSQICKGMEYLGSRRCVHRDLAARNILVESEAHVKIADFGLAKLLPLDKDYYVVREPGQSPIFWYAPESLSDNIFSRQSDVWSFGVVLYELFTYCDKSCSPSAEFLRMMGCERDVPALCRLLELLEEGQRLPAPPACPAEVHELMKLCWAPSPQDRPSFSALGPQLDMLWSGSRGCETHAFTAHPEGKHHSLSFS
Description: ExpresS Diversity Kinase Profile, Cerep (LANCE): JAK3.

The mark [7] stands for this setting: Flag: Interference, read-out: % Inhibition of control values, 1st measurement.
[8] abbreviates: Flag: Interference, read-out: % Inhibition of control values, 2nd measurement.
Where [9] appears, read: n = 2, Flag: Interference, read-out: % Inhibition of control values, Mean.
Setting [10] is: n = 2, read-out: % Inhibition of control values, Mean.
[11] abbreviates: read-out: % Inhibition of control values, 1st measurement.
[12] abbreviates: read-out: % Inhibition of control values, 2nd measurement.

Each structure is given as a SMILES string. Read-outs that look alike come from different tables or passages of the source.

Src, sequence (P12931 whole entry): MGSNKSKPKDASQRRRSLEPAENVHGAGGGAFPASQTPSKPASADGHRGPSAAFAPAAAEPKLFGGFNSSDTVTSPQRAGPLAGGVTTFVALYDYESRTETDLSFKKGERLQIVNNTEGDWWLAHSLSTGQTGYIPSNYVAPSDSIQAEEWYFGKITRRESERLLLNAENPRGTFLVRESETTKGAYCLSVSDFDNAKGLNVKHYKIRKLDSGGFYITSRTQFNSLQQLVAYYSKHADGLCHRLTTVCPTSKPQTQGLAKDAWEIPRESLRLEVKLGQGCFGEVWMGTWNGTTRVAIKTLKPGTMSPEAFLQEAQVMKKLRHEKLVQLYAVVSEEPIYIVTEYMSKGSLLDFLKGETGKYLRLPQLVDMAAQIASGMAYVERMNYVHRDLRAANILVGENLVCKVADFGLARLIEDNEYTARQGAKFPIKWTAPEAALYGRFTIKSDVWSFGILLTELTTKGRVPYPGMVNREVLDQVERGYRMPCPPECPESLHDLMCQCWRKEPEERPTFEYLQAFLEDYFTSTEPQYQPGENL
JNK1, sequence (P45983 whole entry): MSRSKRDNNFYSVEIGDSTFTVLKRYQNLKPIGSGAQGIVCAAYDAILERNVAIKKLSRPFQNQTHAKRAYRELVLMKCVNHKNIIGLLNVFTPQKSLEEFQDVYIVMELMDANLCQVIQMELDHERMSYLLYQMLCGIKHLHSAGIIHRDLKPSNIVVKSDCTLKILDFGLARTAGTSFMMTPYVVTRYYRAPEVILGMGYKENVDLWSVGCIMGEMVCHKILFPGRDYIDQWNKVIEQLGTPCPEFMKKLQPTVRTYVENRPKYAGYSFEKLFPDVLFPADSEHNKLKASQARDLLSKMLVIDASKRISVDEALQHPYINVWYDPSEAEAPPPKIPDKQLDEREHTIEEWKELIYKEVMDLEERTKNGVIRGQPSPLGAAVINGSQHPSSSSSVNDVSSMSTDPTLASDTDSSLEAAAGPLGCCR
CDK1, sequence (P06493 whole entry): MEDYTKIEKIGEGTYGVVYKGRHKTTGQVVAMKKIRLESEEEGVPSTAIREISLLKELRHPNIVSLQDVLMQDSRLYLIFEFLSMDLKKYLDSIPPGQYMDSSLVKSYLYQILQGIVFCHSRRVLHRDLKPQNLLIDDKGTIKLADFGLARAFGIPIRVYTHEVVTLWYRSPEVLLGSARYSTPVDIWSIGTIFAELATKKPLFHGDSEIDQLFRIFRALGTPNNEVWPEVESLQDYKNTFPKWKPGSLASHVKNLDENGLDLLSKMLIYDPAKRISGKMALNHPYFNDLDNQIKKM
CDK1, sequence (P14635 whole entry partner): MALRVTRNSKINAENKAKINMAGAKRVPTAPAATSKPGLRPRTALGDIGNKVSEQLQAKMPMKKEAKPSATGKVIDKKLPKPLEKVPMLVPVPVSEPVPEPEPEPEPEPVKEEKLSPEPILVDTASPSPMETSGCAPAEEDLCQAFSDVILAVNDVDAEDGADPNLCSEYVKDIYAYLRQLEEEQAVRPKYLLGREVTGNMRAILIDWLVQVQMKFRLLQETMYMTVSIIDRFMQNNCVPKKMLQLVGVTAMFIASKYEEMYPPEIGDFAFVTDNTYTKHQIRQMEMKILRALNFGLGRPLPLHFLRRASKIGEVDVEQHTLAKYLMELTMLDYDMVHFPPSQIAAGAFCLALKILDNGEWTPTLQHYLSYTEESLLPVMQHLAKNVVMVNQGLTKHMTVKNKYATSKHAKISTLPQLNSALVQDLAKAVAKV

As to `CN[C@@H]1C[C@H]2O[C@@](C)([C@@H]1OC)n1c3ccccc3c3c4c(c5c6ccccc6n2c5c31)C(=O)NC4` [Staurosporine, reference compound], the nHill in experiment [1] (control) is recorded as 1.8; in experiment [2] (control), 1.1; in experiment [3] (control), 1.0; in experiment [4] (control), 1.1; in experiment [5] (control) it was 0.7; in experiment [6] (control) it was 2.2.
For `CC1(C)CCC2=C(O1)c1ccccc1C(=O)C2=O` [β-Lapachone], the inhibition (usually the drop in the measured response relative to a control, in per cent) at 150 µM in experiment [1] (setting [7]) was 59.8%; in experiment [1] (setting [8]), 55.6%; in experiment [1] (setting [9]) it was 57.7%; in experiment [2] (setting [7]), 66%; in experiment [2] (setting [8]), 68%; in experiment [2] (setting [9]), 67%. The inhibition at 150 µM in experiment [3] (setting [10]) was found to be 37.8%; in experiment [3] (setting [11]), 36.1%; in experiment [3] (setting [12]), 39.5%; in experiment [4] (setting [7]) it was 54.6%; in experiment [4] (setting [8]) it was 55.1%; in experiment [4] (setting [9]), 54.8%. Also, the inhibition at 150 µM in experiment [5] (setting [10]) is 2.2%; in experiment [5] (setting [11]) it was -1.2%; in experiment [5] (setting [12]) it was 5.6%; in experiment [6] (setting [10]) it was 69%; in experiment [6] (setting [11]), 83.6%; in experiment [6] (setting [12]), 54.5%.

For the origin of these results see PMC6138237, “Machine intelligence decrypts β-lapachone as an allosteric 5-lipoxygenase inhibitor” (Chemical Science, 2018).
